Records with an inconclusive call do not appear. The source made the active and inactive calls. How the calls were made is not given here.

Sequence of RNA-binding protein pos-1 (Caenorhabditis elegans) (G5EF15 whole entry, looked up): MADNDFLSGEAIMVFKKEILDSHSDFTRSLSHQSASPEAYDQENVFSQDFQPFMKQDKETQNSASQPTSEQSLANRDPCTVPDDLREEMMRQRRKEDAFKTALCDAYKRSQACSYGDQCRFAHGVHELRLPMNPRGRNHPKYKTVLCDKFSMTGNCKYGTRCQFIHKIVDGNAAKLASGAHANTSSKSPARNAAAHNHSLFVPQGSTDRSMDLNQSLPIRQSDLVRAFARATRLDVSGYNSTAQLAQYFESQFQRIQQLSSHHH

This experiment has as its target RNA-binding protein pos-1 (Caenorhabditis elegans) (UniProt G5EF15). The experiment in a line: inhibitors of POS-1/mex-3 RNA binding, dose response, biochemical, fluorescence polarization (AID 1964). Conditions: POS-1/mex-3 RNA fluorescence polarization.
In the case of `CCC(C)/C=C(C)/C=C/C1=CC2=C(Cl)C(=O)C(C)(OC(C)=O)C(=O)C2=CO1` (stereo not given), the IC50 is > 30 µM (inactive).
For `C[C@H]1c2cccc(O)c2C(O)=C2C(=O)[C@]3(O)C(O)=C(C(N)=O)C(=O)[C@@H](N(C)C)[C@@H]3[C@@H](O)[C@@H]21` the value was > 30 µM (inactive); for `Cc1cc(/C=C2/C(=O)NC(=O)N(Cc3ccco3)C2=O)c(C)n1-c1ccc(C(=O)O)cc1`, > 30 µM (inactive); for `C[C@H]1c2cccc(O)c2C(O)=C2C(=O)[C@]3(O)C(O)=C(C(N)=O)C(=O)[C@@H](N(C)C)C3[C@@H](O)C21` (stereo not given in full), > 30 µM (inactive).
For `Cc1cc(/C=C2\C(=O)NC(=O)N(Cc3ccco3)C2=O)c(C)n1-c1ccc(C(=O)O)cc1` the value was > 30 µM (inactive).
